For assay [1], the system named is N. farcinica ATCC 3318. Put plainly: Colony forming unit (CFU) assay against N. farcinica. The class given is cell-based, Nocardia farcinica. The note with it: for LD90: lowest concentration leading to 90% reduction of CFU, 1 × 10^7 CFU/ml in 10 mM sodium phosphate buffer pH 7.4 + 1% MHB, means of at least four (levofloxacin, HNP 1-3, LL-37, hBD-3) or two (indolicidin, LAP, TAP) independent experiments. The method, then:
(§1) Four strains of the genus Nocardia were investigated: Nocardia farcinica (ATCC 3318), Nocardia nova (ATCC 33726), Nocardia asteroides (ATCC 19247) and Nocardia brasiliensis (ATCC 19296). Strains were grown on Columbia blood agar for at least 72 hours at 37°C. Then 30 ml of Mueller-Hinton-broth (MHB) supplemented with 1% Tween 80 (Serva, Heidelberg, Germany) was inoculated with one loop of bacteria scraped off the agar plates. MHB was incubated in a shake incubator (220 rpm at 37°C). 10 ml of the culture was transferred to a 50 ml tube which contained 1 mm glass beads (BioSpec Products, Bartlesville, USA). After vortexing for 10-15 seconds a homogenous suspension could be gained. A few millilitres of the suspension were used to inoculate another 50 ml of MHB (also supplemented with 1% Tween 80). Cultures were incubated until mid-logarithmic phase was reached. Incubation times were different for each Nocardia species (N. farcinica 12 h, N. nova 24 h, N. asteroides 16 h, N. brasiliensis 72 h).
(§2) A colony forming unit (CFU) assay was established and performed to test AMP susceptibility. Mid-logarithmic growth phase cultures were washed twice in 10 mM sodium phosphate buffer (ph 7.4). A standard inoculum of 1 × 10^7CFU/ml in 10 mM sodium phosphate buffer supplemented with 1% MHB was prepared. 80 μl of the standard inoculum were incubated with 20 μl of the respective concentrations of the antimicrobial agents in the shake incubator at 37°C for 12 h (N. farcinica) to 16 h (N. nova, N. asteroides and N. brasiliensis). Incubation was carried out in 2 ml tubes (Eppendorf, Hamburg, Germany) which were occluded by LidBacs (Eppendorf, Hamburg, Germany) to avoid contamination and provide constant aerobic conditions. After incubation serial dilutions were plated on Mueller-Hinton agar plates and visible colonies were counted after 48-72 hours of incubation at 37°C. Killing was expressed in percentage of bacteria that were killed by incubation with respective peptide concentrations compared to incubation with solvent of the antibacterial substance (0,01% acetic acid or water). LD90 denotes the lowest peptide concentration leading to a =90% reduction of CFU counts. […] Killing activity (CFU counts after incubation with solvent vs. CFU counts after incubation with highest concentration of AMPs or levofloxacin) was analysed by Student's t-test. A p-value < 0.05 was considered significant.

Assay [2] relates to N. nova ATCC 33726. Put plainly: Colony forming unit (CFU) assay against N. nova. The class given is cell-based, Nocardia nova. The note with it: for antinocardial activity (in words): CFU assay; for antinocardial activity (in words) / LD90: 16 h; for LD90: lowest concentration leading to 90% reduction of CFU, 1 × 10^7 CFU/ml in 10 mM sodium phosphate buffer pH 7.4 + 1% MHB, 37°C, means of at least four or two (indolicidin) independent experiments; for killing/CFU reduction in percent ± SD: ATCC 33726, 16 h. The method, then: as §1, §2

Assay [3] relates to N. brasiliensis ATCC 19296. Put plainly: Colony forming unit (CFU) assay against N. brasiliensis. The class given is cell-based, Nocardia brasiliensis. The note with it: for antinocardial activity (in words) / growth of N. brasiliensis after incubation (in words): CFU assay; for antinocardial activity (in words): concentrations up to 64 μg/ml; for growth of N. brasiliensis after incubation (in words): data not shown; for LD90: lowest concentration leading to 90% reduction of CFU, 1 × 10^7 CFU/ml in 10 mM sodium phosphate buffer pH 7.4 + 1% MHB, means of at least four or two (indolicidin, LAP, TAP) independent experiments. As for the experimental part:
as §1, §2

Assay [4] has as its system N. asteroides ATCC 19247. The assay is described as follows: Colony forming unit (CFU) assay against N. asteroides. The class given is cell-based, Nocardia asteroides. The note with it: for antinocardial activity (in words): CFU assay; for LD90: lowest concentration leading to 90% reduction of CFU, 1 × 10^7 CFU/ml in 10 mM sodium phosphate buffer pH 7.4 + 1% MHB, means of at least four or two (indolicidin) independent experiments. The method, then: as §1, §2

[5] abbreviates: at the LD90 concentration, 12 h, 37°C, mean ± SD of at least four or two (indolicidin, LAP, TAP) independent experiments.
Setting [6] is: at the LD90 concentration, 16 h, 37°C, mean ± SD of at least four or two (indolicidin) independent experiments.

Positions of bridges follow the written chain, without caps; N, C: chain ends. Residues, ends and D or L forms follow the SMILES beside them. No end group written: not given here.

The results in this text go back to PMC2834671, “Differential activity of innate defense antimicrobial peptides against Nocardia species” (BMC Microbiology, 2010).

In turn, `CC[C@H](C)[C@H](NC(=O)[C@H](CCCCN)NC(=O)[C@H](CCC(=O)O)NC(=O)[C@H](CCCCN)NC(=O)[C@H](CO)NC(=O)[C@H](CCCCN)NC(=O)[C@H](CCCNC(=N)N)NC(=O)[C@H](Cc1ccccc1)NC(=O)[C@H](Cc1ccccc1)NC(=O)[C@H](CC(=O)O)NC(=O)CNC(=O)[C@H](CC(C)C)NC(=O)[C@@H](N)CC(C)C)C(=O)NCC(=O)N[C@@H](CCCCN)C(=O)N[C@@H](CCC(=O)O)C(=O)N[C@@H](Cc1ccccc1)C(=O)N[C@@H](CCCCN)C(=O)N[C@@H](CCCNC(=N)N)C(=O)N[C@H](C(=O)N[C@H](C(=O)N[C@@H](CCC(N)=O)C(=O)N[C@@H](CCCNC(=N)N)C(=O)N[C@H](C(=O)N[C@@H](CCCCN)C(=O)N[C@@H](CC(=O)O)C(=O)N[C@@H](Cc1ccccc1)C(=O)N[C@@H](CC(C)C)C(=O)N[C@@H](CCCNC(=N)N)C(=O)N[C@@H](CC(N)=O)C(=O)N[C@@H](CC(C)C)C(=O)N[C@H](C(=O)N1CCC[C@H]1C(=O)N[C@@H](CCCNC(=N)N)C(=O)N[C@H](C(=O)N[C@@H](CCC(=O)O)C(=O)N[C@@H](CO)C(=O)O)[C@@H](C)O)C(C)C)[C@@H](C)CC)C(C)C)[C@@H](C)CC` [LL-37] gave a CFU reduction in assay [1] (16 μg/ml peptide alone, single assay (Figure 2)) of 68.5%. The results for the “antinocardial activity (in words)” value in assay [2], in assay [3] (16 h) and in assay [4] (16 h) were “more potent against N. nova than levofloxacin”, “resistant” and “did not show antinocardial activity”, respectively. Also, the LD90 is 32 µg/mL in assay [2]; greater than 64 µg/mL in assay [3] (37°C, 16 h); greater than 64 µg/mL in assay [4] (37°C, 16 h). The “growth of N. brasiliensis after incubation (in words)” value (“growth of N. brasiliensis” for short) in assay [3] (16 h) is on record as “stronger growth”.
As to `C[C@H]1COc2c(N3CCN(C)CC3)c(F)cc3c(=O)c(C(=O)O)cn1c23` [Levofloxacin, reference compound], the “antinocardial activity (in words)” value in assay [1] (CFU assay, 12 h) is given as “dose-dependent activity”; in assay [2] it was “dose-dependent activity”; in assay [3] (16 h) it was “dose-dependent activity”; in assay [4] (16 h), “dose-dependent activity”. Also, the “killing/CFU reduction in percent ± SD” value in assay [1] (setting [5]) is 92.3 ± 3.8%; in assay [3] (setting [6]), 96.6 ± 2.2%; in assay [4] (setting [6]) it was 92.6 ± 3.8%. The LD90 is 8 µg/mL in assay [1] (37°C, 12 h); greater than 32 µg/mL in assay [2]; 32 µg/mL in assay [3] (37°C, 16 h); 8 µg/mL in assay [4] (37°C, 16 h).
For `CC[C@H](C)[C@@H]1NC(=O)CNC(=O)[C@H](CCCCN)NC(=O)[C@H](CC(N)=O)NC(=O)[C@H](CCCNC(=N)N)NC(=O)[C@H](C(C)C)NC(=O)[C@@H](NC(=O)[C@H](CO)NC(=O)[C@@H](NC(=O)[C@@H]2CCCN2C(=O)[C@@H](N)CC(N)=O)C(C)C)CSSC[C@@H]2NC(=O)[C@H](CCCCN)NC(=O)[C@H](C(C)C)NC(=O)[C@H](C)NC(=O)[C@H](CCCNC(=N)N)NC(=O)CNC(=O)[C@H](C(C)C)NC(=O)[C@@H]3CSSC[C@H](NC1=O)C(=O)N[C@@H](C(C)C)C(=O)N1CCC[C@H]1C(=O)N[C@@H]([C@@H](C)CC)C(=O)N[C@@H](CCCNC(=N)N)C(=O)N[C@@H](CSSC[C@@H](C(=O)N[C@@H](CCCNC(=N)N)C(=O)N[C@@H](CCCCN)C(=O)N[C@@H](CCCCN)C(=O)O)NC2=O)C(=O)N1CCC[C@H]1C(=O)NCC(=O)N[C@@H](CO)C(=O)N[C@@H](CCSC)C(=O)N[C@@H](CCCCN)C(=O)N[C@@H](CCC(N)=O)C(=O)N[C@@H]([C@@H](C)CC)C(=O)NCC(=O)N[C@@H]([C@@H](C)O)C(=O)N3` [TAP] (H-NPVSCVRNKGICVPIRCPGSMKQIGTCVGRAVKCCRKK-OH; disulfide 5-34, 12-27, 17-35 (inferred); N-terminus and C-terminus assumed), the “killing/CFU reduction in percent ± SD” value in assay [1] (setting [5]) came to 94 ± 5.1%. For the same compound, the LD90 in assay [1] (37°C, 12 h) is 32 µg/mL. In addition, in assay [3] (16 h), the “antinocardial activity (in words)” value is on record as “resistant” and the “growth of N. brasiliensis” value is recorded as “pronounced growth”.
Turning to `CC[C@H](C)[C@H](N)C(=O)N[C@@H](CC(C)C)C(=O)N1CCC[C@H]1C(=O)N[C@@H](Cc1c[nH]c2ccccc12)C(=O)N[C@@H](CCCCN)C(=O)N[C@@H](Cc1c[nH]c2ccccc12)C(=O)N1CCC[C@H]1C(=O)N[C@@H](Cc1c[nH]c2ccccc12)C(=O)N[C@@H](Cc1c[nH]c2ccccc12)C(=O)N1CCC[C@H]1C(=O)N[C@@H](Cc1c[nH]c2ccccc12)C(=O)N[C@@H](CCCNC(=N)N)C(=O)N[C@@H](CCCNC(=N)N)C(N)=O` [indolicidin], the “killing/CFU reduction in percent ± SD” value in assay [1] (ATCC 3318, 12 h) was found to be 96.7 ± 1.7%; in assay [2], 90.5 ± 3.4%; in assay [3] (ATCC 19296, 16 h) it was 92.9 ± 2.1%; in assay [4] (ATCC 19247, 16 h), 99.1 ± 0.6%. Moreover, the LD90 was determined as 16 µg/mL in assay [1] (37°C, 12 h); 8 µg/mL in assay [2]; 64 µg/mL in assay [3] (37°C, 16 h); 64 µg/mL in assay [4] (37°C, 16 h).
Consider “GIINTLQKYYCRVRGGRCAVLSCLPKEEQIGKCSTRGRKCCRRKK (disulfide 11-40, 18-33, 23-41 (inferred)) [hBD-3]”, for which the “killing/CFU reduction in percent ± SD” value in assay [1] (ATCC 3318, 12 h) is recorded as 92.5 ± 5.3%; in assay [2], 95.2 ± 1.7%. The LD90 in assay [1] (37°C, 12 h) is 16 µg/mL; in assay [2] it was 16 µg/mL; in assay [3] (37°C, 16 h), greater than 64 µg/mL; in assay [4] (37°C, 16 h), greater than 64 µg/mL. Besides, the figures for the “antinocardial activity (in words)” value in assay [2], in assay [3] (16 h) and in assay [4] (16 h) were “more potent against N. nova than levofloxacin”, “resistant” and “did not show antinocardial activity”, respectively. Besides, in assay [3] (16 h), the “growth of N. brasiliensis” value is recorded as “stronger growth”.
Consider “LAP: bovine β-defensin lingual antimicrobial peptide, synthesized and oxidatively folded (VRNSQSCRRNKGICVPIRCPGSMRQIGTCLGAQVKCCRRK; disulfide (positions not given here); UniProt Q28880 25-64, looked up)”, for which the “killing/CFU reduction in percent ± SD” value in assay [1] (setting [5]) is 92.9 ± 7.1%. Besides, the LD90 is 16 µg/mL in assay [1] (37°C, 12 h) and greater than 64 µg/mL in assay [3] (37°C, 16 h). The “antinocardial activity (in words)” value in assay [3] (16 h) was “resistant”. Further, in assay [3] (16 h), the “growth of N. brasiliensis” value is “pronounced growth”.
